Results from PubChem BioAssay (NCI).
Where “and” joins values, the source holds several entries; their conditions need not be identical. Identical values can stand only once.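 96-well plates; 48 h exposure; 5 concentrations. Endpoints by linear interpolation between flanking doses. Not reached: highest tested concentration assigned. Here, GI50 denotes the concentration required for 50% inhibition of growth. TGI: total growth inhibition.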

Columns and labels:
Experiment in all cases: NCI anticancer screen, dose series, 48 h
[1] = test system: 786-0 renal
[2] = test system: A498 renal
[3] = test system: EKVX NSCLC
[4] = test system: NCI-H460 lung
[5] = test system: SF-268 CNS
[6] = test system: SNB-19 CNS
[7] = test system: UACC-257 melanoma
[8] = test system: HOP-62 NSCLC
[9] = test system: SR leukemia
[10] = test system: DU-145 prostate

CC1(c2ccc(F)cc2)C2C(=O)NC(=O)C1C(=O)NC2=O (configuration not stated)
TGI [1]: > 100 µM | TGI [2]: > 100 µM | TGI [3]: > 100 µM | TGI [4]: > 100 µM | TGI [5]: > 100 µM | TGI [6]: > 100 µM | TGI [7]: > 100 µM

CSc1ccc(N2C(=O)C3c4[nH]c5ccccc5c4C4CCC(C(C)(C)C)CC4C3C2=O)cc1 (configuration not stated)
TGI [1]: 29.1 µM | TGI [2]: 33.7 µM | TGI [3]: 44.2 µM | TGI [8]: 28.6 µM | TGI [4]: 34.4 µM | TGI [5]: 45.4 µM | TGI [6]: 45.2 µM | TGI [9]: 23.2 µM | TGI [7]: > 100 µM

CCO/C=C\C12CCCC1NC(c1ccccc1)(c1ccccc1)O2 (configuration not stated)
TGI [1]: > 100 µM | TGI [2]: > 100 µM | TGI [3]: > 100 µM | TGI [8]: > 100 µM | TGI [4]: > 100 µM | TGI [5]: > 100 µM | TGI [6]: > 100 µM | TGI [7]: 85.5 µM

CC(NNC(=S)N1CCN(c2ccccn2)CC1)c1nccc2ccccc12 (configuration not stated)
TGI [1]: 13 µM | TGI [2]: 17.3 µM | TGI [10]: 13.8 µM | TGI [3]: 11.4 µM | TGI [8]: 15.5 µM | TGI [4]: 11.3 µM | TGI [5]: 14.5 µM | TGI [6]: 17 µM | TGI [7]: 12.9 µM

O=C(Nc1ccc(Br)cc1)C(=O)C(C(=O)c1ccc(Cl)c(Cl)c1)C1OC(=O)c2ccccc21 (configuration not stated)
TGI [1]: 30.9 µM | TGI [2]: 33.9 µM | TGI [3]: > 100 µM | TGI [8]: 32.5 µM | TGI [4]: 38.2 µM | TGI [5]: 21.4 µM | TGI [6]: 97.8 µM | TGI [9]: > 100 µM | TGI [7]: 38.9 µM

Cc1cc(-c2ccccc2)nc(Nc2cc3ccccc3[nH]2)n1
TGI [1]: > 100 µM | TGI [2]: > 100 µM | TGI [3]: > 100 µM | TGI [8]: > 100 µM | TGI [4]: > 100 µM | TGI [5]: > 100 µM | TGI [6]: > 100 µM | TGI [9]: > 100 µM | TGI [7]: > 100 µM

O=C1c2ccccc2C(=O)N1CC#CCO
TGI [1]: > 100 µM | TGI [2]: > 100 µM | TGI [3]: > 100 µM | TGI [8]: > 100 µM | TGI [4]: > 100 µM | TGI [5]: > 100 µM | TGI [6]: > 100 µM | TGI [9]: > 100 µM | TGI [7]: > 100 µM

CC(=O)C(CN1C(=O)c2ccccc2C1=O)C(C)=O
TGI [1]: > 100 µM | TGI [2]: > 100 µM | TGI [10]: > 100 µM | TGI [3]: > 100 µM | TGI [8]: > 100 µM | TGI [4]: > 100 µM | TGI [5]: > 100 µM | TGI [6]: > 100 µM | TGI [7]: > 100 µM

CCN1CCN(C(=O)[C@]23CC[C@@H](C)[C@H](C)[C@@H]2C2=CC[C@@H]4[C@@]5(C)CCC(=O)C(C)(C)[C@@H]5CC[C@@]4(C)[C@]2(C)CC3)CC1
GI50 [1]: 814 nM | TGI [1]: 1.7 µM | GI50 [2]: 927 nM | TGI [2]: 2.42 µM | GI50 [10]: 1670 nM | TGI [10]: 5.62 µM | GI50 [3]: 916 nM | TGI [3]: 2.42 µM | GI50 [8]: 1.38 µM | TGI [8]: 3.09 µM | GI50 [4]: 930 nM | TGI [4]: 1.75 µM | GI50 [5]: 1770 nM | TGI [5]: 6.49 µM | GI50 [6]: 0.849 µM | TGI [6]: 1.72 µM | GI50 [7]: 985 nM | TGI [7]: 2.19 µM

COc1cc(C2c3cc4c(cc3[C@@H](NC3CCN(Cc5ccccc5)CC3)C3COC(=O)[C@H]23)OCO4)cc(OC)c1O (some centres not stated)
GI50 [1]: 161 nM and 33.3 nM | TGI [1]: 0.668 µM and 0.221 µM | TGI [2]: 0.498 µM | GI50 [3]: 369 nM and 783 nM | TGI [3]: 2.43 µM and 3.96 µM | TGI [8]: 0.206 µM and 0.146 µM | GI50 [4]: < 10 nM | TGI [4]: 0.194 µM and 0.116 µM | TGI [5]: 1.98 µM and 0.584 µM | TGI [6]: 22.4 µM and 2.94 µM | TGI [9]: 0.02 µM | GI50 [7]: 1420 nM and 256 nM | TGI [7]: 11.9 µM and 2.12 µM

CCCCCCCCCCCCCCNCC(OC)OC
TGI [1]: 31 µM | TGI [2]: 35 µM | TGI [3]: 34.2 µM | TGI [8]: 31.8 µM | TGI [4]: 34.1 µM | TGI [5]: 39.4 µM | TGI [6]: 33.8 µM | TGI [7]: 37.5 µM

OC1OCC(COc2cc(Cl)c(Cl)cc2Cl)OC1O (configuration not stated)
TGI [1]: > 100 µM | TGI [2]: > 100 µM | TGI [3]: 81.9 µM | TGI [8]: > 100 µM | TGI [4]: > 100 µM | TGI [5]: > 100 µM | TGI [6]: > 100 µM | TGI [7]: > 100 µM

COc1ccc(N=NC2=C(O)CCC2=O)cc1
TGI [1]: > 100 µM | TGI [2]: > 100 µM | TGI [3]: > 100 µM | TGI [8]: > 100 µM | TGI [4]: > 100 µM | TGI [5]: > 100 µM | TGI [6]: > 100 µM | TGI [7]: > 100 µM

CC1(C)CC(=O)C(CC2C(=O)CCCC2=O)C(=O)C1
TGI [1]: > 100 µM | TGI [2]: > 100 µM | TGI [3]: > 100 µM | TGI [8]: > 100 µM | TGI [4]: > 100 µM | TGI [5]: > 100 µM | TGI [6]: > 100 µM | TGI [9]: > 100 µM | TGI [7]: > 100 µM

CC(C)(C)NCC(O)c1ccccc1Cl (configuration not stated)
GI50 [1]: > 100000 nM | TGI [1]: > 100 µM | GI50 [2]: > 100000 nM | TGI [2]: > 100 µM | GI50 [10]: > 100000 nM | TGI [10]: > 100 µM | GI50 [3]: > 100000 nM | TGI [3]: > 100 µM | GI50 [8]: > 100 µM | TGI [8]: > 100 µM | GI50 [4]: > 100000 nM | TGI [4]: > 100 µM | GI50 [5]: > 100000 nM | TGI [5]: > 100 µM | GI50 [6]: > 100 µM | TGI [6]: > 100 µM | GI50 [7]: > 100000 nM | TGI [7]: > 100 µM

NS(=O)(=O)c1ccc(-n2nc3c(c2-c2cccs2)Cc2ccccc2-3)cc1
GI50 [1]: 17100 nM | TGI [1]: 31.9 µM | GI50 [10]: 10600 nM | TGI [10]: 24 µM | GI50 [3]: 11900 nM | TGI [3]: 29.4 µM | GI50 [8]: 16.5 µM | TGI [8]: 32.2 µM | GI50 [4]: > 100000 nM | TGI [4]: > 100 µM | GI50 [5]: > 100000 nM | TGI [5]: > 100 µM | GI50 [6]: 18.1 µM | TGI [6]: 44.8 µM | GI50 [7]: 23200 nM | TGI [7]: 44.2 µM

COC(=O)C1=C(C)NC(=S)NC1c1ccc(N(CCCl)CCCl)cc1Cl (configuration not stated)
TGI [1]: > 100 µM | GI50 [2]: 46900 nM | TGI [2]: > 100 µM | TGI [10]: > 81.1 µM | TGI [3]: > 37.8 µM | TGI [8]: > 100 µM | TGI [4]: > 100 µM | TGI [5]: 98.4 µM | TGI [6]: > 100 µM | TGI [7]: 44.5 µM

CCCCCCCCCC1CC(=O)OC2=C1C(=O)CCC2 (configuration not stated)
TGI [1]: > 100 µM | TGI [3]: > 100 µM | TGI [8]: > 100 µM | TGI [4]: > 100 µM | TGI [5]: > 100 µM | TGI [6]: > 100 µM | TGI [9]: > 100 µM | TGI [7]: > 100 µM

NC(=O)NNC/C(Cl)=C(\Cl)C(=O)O
TGI [1]: > 100 µM | TGI [2]: > 100 µM | TGI [3]: > 100 µM | TGI [8]: > 100 µM | TGI [4]: > 100 µM | TGI [5]: > 100 µM | TGI [6]: > 100 µM | TGI [7]: > 100 µM

C/C(=N\N=C(N)N)C(CN1CCOCC1)C(c1ccccc1)c1c(O)c2ccccc2oc1=O (configuration not stated)
TGI [1]: > 100 µM | TGI [3]: > 100 µM | TGI [8]: > 100 µM | TGI [4]: > 100 µM | TGI [5]: > 100 µM | TGI [6]: > 100 µM | TGI [9]: > 100 µM | TGI [7]: > 100 µM

CCCCCCC(=O)NC1=C(N2CC2)C(=O)C(NC(=O)CCCCCC)=C(N2CC2)C1=O
GI50 [1]: 4250 nM | TGI [1]: > 100 µM | GI50 [2]: 2620 nM | TGI [2]: > 100 µM | GI50 [10]: 1130 nM | TGI [10]: > 100 µM | GI50 [8]: 5.35 µM | TGI [8]: > 100 µM | GI50 [4]: 677 nM | TGI [4]: > 100 µM | GI50 [5]: 2230 nM | TGI [5]: > 100 µM | GI50 [6]: 12.9 µM | TGI [6]: > 100 µM | GI50 [9]: 1060 nM | TGI [9]: > 100 µM
